{"source": "paper PMC9367672", "about": "“In vitro differences in toddalolactone metabolism in various species and its effect on cytochrome P450 expression” (Pharmaceutical Biology, 2022)", "key": {"[1]": {"test": "Enzyme kinetics of toddalolactone metabolism in mini pig liver microsomes (oxidative metabolism and glucuronidation)", "type": "in vitro ADME", "details": "pig, Vmax/Km", "protocol": "(§1) The CYP reaction system (200 μL) consisted of 0.1 M potassium phosphate buffer (pH 7.4), an NADPH-generating system (1 mM NADPH, 10 mM G-6-P, 1 unit/mL G-6-PD, 4 mM MgCl2), and liver microsomes or recombinant human microsomes (supersomes). Each of the in vitro enzymatic assays using liver microsomes was linear with respect to incubation time and amount of protein. After a pre-incubation at 37 °C for 3 min, the reactions were initiated by adding NADP^+. After incubating for 60 min, the reactions were quenched by adding 200 μL of ice-cold acetonitrile. Samples were centrifuged at 18,000 g for 15 min at 4 °C and 10 μL of supernatant was analyzed using an HPLC system. NADPH or CYP enzyme sources were not used in the control group to ensure that the metabolic reactions were CYP- and NADPH-dependent. All incubation assays were completed in triplicate. The data are presented as mean ± standard deviation (SD).\nIn the UGT reaction system, liver microsomes were incubated in 200 μL of the reaction system containing 4 mM UDPGA, 5 mM MgCl2, 20 µg/mL alamethicin, and 50 mM Tris-HCl buffer (pH 7.4). After pre-incubation at 37 °C for 3 min, UDPGA was added to the mixture to initiate the reactions. The mixtures were incubated at 37 °C for 60 min, followed by the addition of 200 μL of cold methanol to terminate the reactions. After centrifugation at 18,000 g for 15 min, 10 μL of the supernatant was analyzed by HPLC.\nThe enzyme kinetics of toddalolactone in oxidative metabolism and glucuronidation were determined by incubating liver microsomes (0.2 mg/mL) or CYPs (15 nM) with different concentrations of toddalolactone (1–200 μM). The kinetic parameters including Km and Vmax were obtained by fitting the experimental data to the Michaelis–Menten equation (Equation (1)), biphasic kinetics equation (Equation (2)), or substrate inhibition equation (Equation (3)) (He et al. [2018]), and the results were graphically represented on Eadie–Hofstee plots. The in vitro intrinsic clearance (CLint) was calculated based on the Vmax/Km ratio. Metabolites were quantified using the standard curve for toddalolactone because of the absence of metabolite standards. All incubations were repeated in three independent experiments. Kinetic constants were expressed with mean ± SD: (1) V=Vmax×[S]/Km+[S] (2) V=Vmax1×[S]/Ks1+[S]+Vmax2×[S]/Ks2+[S] (3) V=Vmax×[S]/Ks+[S]+[S]^2/Ksi where v is the rate of reaction, Vmax is the estimated maximum velocity, [S] is the substrate concentration, and Km is the affinity constant of the substrate; Vmax1 and Vmax2 represent the estimated maximum velocity of the two metabolic phases; Ks1 and Ks2 represent the affinity constants for two metabolic phases; Ks and Ksi are the substrate affinity and inhibition constants, respectively.\nThe enzyme kinetics in oxidative metabolism and glucuronidation of toddalolactone were studied, and preliminary experiments were performed to ensure that metabolites were formed in the linear range of both reaction time and microsomal protein concentration. The metabolite with the largest peak area was used to calculate the kinetic parameter values (Km, Vmax and CLint). Based on the results of toddalolactone metabolism in different species, the kinetic parameter values in RLMs, DLMs, MLMs, HLMs, RAMs, MIMs, PLMs, CYP1A1 and CYP3A5 were calculated using P4, P4, P4, P4, P2, P2, P4, P4 and P4 data in oxidative metabolism, respectively. In the glucuronidation reaction, the kinetic parameter values in RLMs, MLMs, HLMs, RAMs and PLMs were calculated using P5, P6, P6, P6 and P5 data, respectively."}, "[2]": {"test": "Pharmacokinetics study in rats after intravenous administration", "type": "in vivo", "details": "male, Sprague-Dawley, rat, intravenous 10 mg/kg, plasma", "protocol": "Six male Sprague–Dawley rats weighing 200 ± 10 g were obtained from the Laboratory Animal Center of Jinzhou Medical University. Approval of the study protocols was obtained from the Institutional Animal Ethics Committee before the commencement of the studies. Toddalolactone was administered intravenously into the tail vein at a dose of 10 mg/kg, and 0.5 mL of blood was collected through orbital venous plexus at 0, 0.25, 0.5, 0.75, 1, 2, 4, 6 and 8 h after toddalolactone administration and centrifuged at 2000 g for 5 min at 4 °C to obtain the plasma samples. The plasma (0.1 mL) was mixed with 200 μL acetonitrile, the mixture was vortexed for 30 s and then centrifuged at 20,000 g for 20 min and the supernatant was collected and analyzed by HPLC.\nAfter intravenous administration of toddalolactone, blood samples were collected and the concentration of toddalolactone in plasma was determined. The mean plasma concentrations of toddalolactone versus time profiles are depicted in Figure 13. The pharmacokinetic (PK) parameters such as AUC0–t, t1/2, Tmax and Cmax were calculated by a noncompartmental method using the DAS 3.1 software package (Jiangxi University of Traditional Chinese Medicine, Nanchang, China)."}, "[3]": {"test": "Metabolic stability assessment in rat liver microsomes", "type": "in vitro ADME", "details": "pH 7.4, RLMs, toddalolactone 20 μM, 0-90 min", "protocol": "as §1, with “NADPH or CYP enzyme sources were not used in the control group to ensure that the metabolic reactions were CYP- and NADPH-dependent. All incubation assays were completed in triplicate. The data are presented as mean ± standard deviation (SD).” left out\nIn the UGT reaction system, liver microsomes were incubated in 200 μL of the reaction system containing 4 mM UDPGA, 5 mM MgCl2, 20 µg/mL alamethicin, and 50 mM Tris-HCl buffer (pH 7.4). […] After centrifugation at 18,000 g for 15 min, 10 μL of the supernatant was analyzed by HPLC.\nToddalolactone (20 μM) was incubated with different liver microsomes, including HLMs, DLMs, PLMs, MLMs, RAMs, RLMs or MIMs in oxidative metabolism and glucuronidation reaction systems. […] The mixtures were centrifuged at 18,000 g for 15 min at 4 °C and then 10 μL of the supernatant was analyzed by HPLC. […]\nThe peak areas of toddalolactone and its metabolites were detected using a HPLC system (Shimadzu, Kyoto, Japan). […]"}}, "note": "Where two headings read alike, the source gives them in different places."}
{"compound": "COc1cc2oc(=O)ccc2c(OC)c1C[C@@H](O)C(C)(C)O", "note": "[toddalolactone]", "values": [{"measurement": "microsomal CLint", "setting": "[1]; liver microsomes, pH 7.4, PLMs, P450-catalyzed oxidation, P4 formation", "value": 0.69, "unit": "µL/min/mg"}, {"measurement": "microsomal CLint", "setting": "[1]; mini pig liver microsomes (PLMs), UGT reaction system, pH 7.4, glucuronide metabolism, P5 formation", "value": 0.36, "unit": "µL/min/mg"}, {"measurement": "Tmax", "setting": "[2]", "value": 0.25, "unit": "h"}, {"measurement": "AUC(0-t)", "setting": "[2]; 0–8 h", "value": 460, "unit": "ng·h/mL"}, {"measurement": "Cmax", "setting": "[2]; mean of six", "value": 420, "unit": "ng/mL"}, {"measurement": "half-life", "setting": "[2]; read-out: elimination t1/2 (converted)", "value": 1.05, "unit": "h"}, {"measurement": "half-life at 20 μM", "setting": "[3]; CYP incubation system, read-out: half-life value (T1/2)", "value": "6.37 ± 0.283", "unit": "h"}, {"measurement": "half-life at 20 μM", "setting": "[3]; UGT incubation system, read-out: T1/2 value", "value": "2.15 ± 0.197", "unit": "h"}]}
